These results are taken from ChEMBL document CHEMBL4020719, “Synthesis and biological evaluation of novel indole-pyrimidine hybrids bearing morpholine and thiomorpholine moieties” (Eur J Med Chem, 2017).

Assay [1] deals with HCT-116. Briefly: cells. The note with it: Homo sapiens, HCT-116, 48 h.
The subject of a further assay is MDA-MB-231. Briefly: Antiproliferative activity against human MDA-MB-231 cells after 48 hrs by MTT assay. It counts as functional, cell-based. The conditions noted are these: MDA-MB-231, 48 h. On the technique in general: Tetrazolium dyes change colour on reduction, which living cells bring about.
The species named for another assay is Sus scrofa. Briefly: Inhibition of pig brain tubulin polymerization at 10 uM by spectrophotometric analysis.
In a further assay the test system is MCF7. Briefly: cells. The conditions noted are these: Homo sapiens, MCF7, 48 h.
Assay [2] deals with HeLa. Briefly: cells. The note with it: Homo sapiens, 48 h.
The next assay concerns HEK293. Briefly: Antiproliferative activity against HEK293 cells after 48 hrs by MTT assay. It counts as cell-based. The conditions noted are these: Homo sapiens, HEK293, 48 h.
Assay [3] has as its system HeLa. Briefly: Cell cycle arrest in human HeLa cells assessed as accumulation at G2/M phase after 12 hrs by FACS analysis. The assay is classed as functional, cell-based.
Assay [4] deals with HeLa. Briefly: Cell cycle arrest in human HeLa cells assessed as accumulation at G0/G1 phase at 2.5 uM after 12 hrs by FACS analysis (reference value: 61.74%). It counts as functional.
Assay [5] concerns HeLa. Briefly: Cell cycle arrest in human HeLa cells assessed as accumulation at G0/G1 phase at 5 uM after 12 hrs by FACS analysis (reference value: 61.74%). It counts as functional. On the technique in general: Flow cytometry measures light scatter and fluorescence of single cells or particles in a stream.
Assay [6] has as its system HeLa. Briefly: Cell cycle arrest in human HeLa cells assessed as accumulation at S phase at 5 uM after 12 hrs by FACS analysis (reference value: 29.14%). It counts as functional.
In assay [7] the test system is HeLa. Briefly: Cell cycle arrest in human HeLa cells assessed as accumulation at S phase at 2.5 uM after 12 hrs by FACS analysis (reference value: 29.14%). The assay is classed as functional.
In assay [8] the test system is HeLa. Briefly: Cell cycle arrest in human HeLa cells assessed as accumulation at G2/M phase at 1.25 uM after 12 hrs by FACS analysis (reference value: 9.12%). The assay is classed as functional.
The subject of assay [9] is HeLa. Briefly: Cell cycle arrest in human HeLa cells assessed as accumulation at G2/M phase at 2.5 uM after 12 hrs by FACS analysis (reference value: 9.12%). The assay is classed as functional.
Assay [10] concerns HeLa. Briefly: Cell cycle arrest in human HeLa cells assessed as accumulation at S phase at 1.25 uM after 12 hrs by FACS analysis (reference value: 29.14%). It counts as functional.
The subject of assay [11] is HeLa. Briefly: Cell cycle arrest in human HeLa cells assessed as accumulation at G0/G1 phase at 1.25 uM after 12 hrs by FACS analysis (reference value: 61.74%). The assay is classed as functional.
In assay [12] the test system is HeLa. Briefly: Cell cycle arrest in human HeLa cells assessed as accumulation at G2/M phase at 5 uM after 12 hrs by FACS analysis (reference value: 9.12%). It counts as functional.
Assay [13] is described as follows: Inhibition of pig brain tubulin polymerization by spectrophotometric analysis. More on the design: species or system Sus scrofa.
Assay [14] has as its system HCT-116. Briefly: Potency index, ratio of CA-4 IC50 to compound IC50 for human HCT116 cells. It counts as functional.

SMILES strings stand for the structures.

By IC50 is commonly meant the concentration at which inhibition is half-maximal. High values mean weaker potency, low ones greater potency. As usually defined, the inhibition is the change of the read-out against control, counted positive when it falls. Read a low inhibition as a response near the control. For `O=C(c1ccccc1)c1[nH]c2ccccc2c1Nc1nc(N2CCSCC2)ncc1[N+](=O)[O-]`, the IC50 with HCT-116 [1], in the assay on MDA-MB-231, with MCF7 and in the assay with HeLa [2] was greater than 100 µM each time. Besides, the inhibition in the assay listed under Sus scrofa came out at 2%.

Take `COc1ccc(/C=C\c2cc(OC)c(OC)c(OC)c2)cc1O` [COMBRETASTATIN A4]: the IC50 was 6.1 µM in the assay with HCT-116 [1], 270 µM with MDA-MB-231, 0.041 µM with MCF7 and 0.23 µM with HeLa [2]. Moreover, in the assay filed under Sus scrofa, the inhibition came to 80%.

Consider `O=C(c1cccs1)c1[nH]c2cc(Cl)ccc2c1Nc1nc(N2CCOCC2)ncc1[N+](=O)[O-]`, for which the IC50 is greater than 100 µM in the assay on HCT-116 [1], greater than 100 µM in the assay on MDA-MB-231, 69.4 µM in the assay with MCF7 and 94.7 µM with HeLa [2]. In addition, the inhibition in the assay filed under Sus scrofa worked out at 19%.

`O=C(c1ccc(Br)cc1)c1[nH]c2ccccc2c1Nc1nc(N2CCSCC2)ncc1[N+](=O)[O-]`: the IC50 in the assay on HCT-116 [1], in the assay with MDA-MB-231, in the assay on MCF7 and in the assay with HeLa [2] was greater than 100 µM in each case.

For the compound `COc1ccc(C(=O)c2[nH]c3ccccc3c2Nc2nc(N3CCOCC3)ncc2[N+](=O)[O-])cc1`, the IC50 in the assay with HCT-116 [1] was found to be 6.4 µM; in the assay with MDA-MB-231, 8.69 µM; with MCF7, 57.1 µM; in the assay with HeLa [2], 4.32 µM; in the assay on HEK293, 14.8 µM. Further, the inhibition in the assay filed under Sus scrofa turned out to be 14%.

Regarding `O=C(c1[nH]c2ccccc2c1Nc1nc(N2CCOCC2)ncc1[N+](=O)[O-])C1CC1`, the IC50 with HCT-116 [1] came out at 73.5 µM; in the assay with MDA-MB-231, 89.4 µM; in the assay on MCF7 it was 89.4 µM; with HeLa [2] it was 49.6 µM.

As to `O=C(c1cccc(Br)c1)c1[nH]c2ccccc2c1Nc1nc(N2CCOCC2)ncc1[N+](=O)[O-]`, the IC50 in the assay on HCT-116 [1] is 11.4 µM; with MDA-MB-231, 9.42 µM; with MCF7 it was 1.42 µM; in the assay with HeLa [2] it was 2.51 µM; in the assay with HEK293, 10.1 µM. The Activity entry in the assay on HeLa [3] was “Dose-dependent effect”; with HeLa [4] it was 15.31%; in the assay on HeLa [5], 5.02%; in the assay on HeLa [6] it was 6.4%; in the assay on HeLa [7], 26.35%; in the assay with HeLa [8], 12.63%. For the same compound, the Activity was found to be 58.34% in the assay with HeLa [9], 34.05% with HeLa [10], 53.32% with HeLa [11] and 88.58% in the assay with HeLa [12]. For the same compound, the inhibition in the assay filed under Sus scrofa was determined as 36%.

Regarding `O=C(c1ccc(-c2ccccc2)cc1)c1[nH]c2ccccc2c1Nc1nc(N2CCOCC2)ncc1[N+](=O)[O-]`, the IC50 is 9.48 µM in the assay with HCT-116 [1]; 10.3 µM in the assay on MDA-MB-231; 19.3 µM in [13]; 0.29 µM with MCF7; 4.04 µM with HeLa [2]; 78.6 µM with HEK293. For the same compound, in the assay filed under Sus scrofa, the inhibition was determined as 42%.

`O=C(c1ccc(-c2ccccc2)cc1)c1[nH]c2cc(Cl)ccc2c1Nc1nc(N2CCOCC2)ncc1[N+](=O)[O-]`: the IC50 in the assay on HCT-116 [1] is greater than 100 µM; with MDA-MB-231 it was 58.7 µM; with MCF7 it was 42.7 µM; with HeLa [2], 16.6 µM.

Regarding `O=C(c1ccc(Cl)cc1)c1[nH]c2cc(Cl)ccc2c1Nc1nc(N2CCOCC2)ncc1[N+](=O)[O-]`, the IC50 is greater than 100 µM with HCT-116 [1], greater than 100 µM with MDA-MB-231, 83.7 µM in the assay on MCF7 and greater than 100 µM in the assay with HeLa [2].

Take `Cc1ccc2c(Nc3nc(N4CCOCC4)ncc3[N+](=O)[O-])c(C(=O)c3ccc(Br)cc3)[nH]c2c1`: the IC50 with HCT-116 [1], with MDA-MB-231, in the assay with MCF7 and in the assay on HeLa [2] was greater than 100 µM throughout.

Regarding `CCOC(=O)n1c(C(=O)c2ccccc2)c(Nc2nc(N3CCOCC3)ncc2[N+](=O)[O-])c2ccc(Cl)cc21`, the IC50 was 80.6 µM in the assay on HCT-116 [1], 35.8 µM in the assay on MDA-MB-231, 78.4 µM in the assay with MCF7 and greater than 100 µM in the assay with HeLa [2].

Consider `Cc1ccc2c(Nc3nc(N4CCOCC4)ncc3[N+](=O)[O-])c(C(=O)c3ccc(Cl)cc3)[nH]c2c1`, for which the IC50 with HCT-116 [1] was greater than 100 µM; in the assay on MDA-MB-231, greater than 100 µM; with MCF7, 98.7 µM; in the assay on HeLa [2], greater than 100 µM.

As to `O=C(c1ccccc1)c1[nH]c2ccccc2c1Nc1nc(N2CCOCC2)ncc1[N+](=O)[O-]`, the IC50 with HCT-116 [1] is 55.8 µM; in the assay on MDA-MB-231 it was 92.6 µM; in the assay with MCF7, 89.2 µM; with HeLa [2] it was 82.5 µM. The inhibition in the assay filed under Sus scrofa was found to be 23%.

Turning to `Cc1ccc2c(Nc3nc(N4CCOCC4)ncc3[N+](=O)[O-])c(C(=O)c3cccs3)[nH]c2c1`, the IC50 in the assay with HCT-116 [1] is 39.1 µM; in the assay on MDA-MB-231, 93.7 µM; in the assay on MCF7 it was greater than 100 µM; with HeLa [2] it was greater than 100 µM.

For `CN1CCN(c2ncc([N+](=O)[O-])c(Nc3c(C(=O)c4cccs4)[nH]c4cc(Cl)ccc34)n2)CC1`, the IC50 was 17.4 µM in the assay on HCT-116 [1]; 5.01 µM in the assay with MDA-MB-231; 13.9 µM with MCF7; 19.9 µM with HeLa [2]; greater than 100 µM with HEK293. The compound also gave an inhibition in the assay filed under Sus scrofa of 47%.

In the case of `CCOC(=O)n1c(C(=O)c2ccc(OC)cc2)c(Nc2nc(N3CCOCC3)ncc2[N+](=O)[O-])c2ccccc21`, the IC50 in the assay on HCT-116 [1] was 2.99 µM; with MDA-MB-231, 3.01 µM; in the assay on MCF7, 2.13 µM; with HeLa [2] it was 5.52 µM; in the assay on HEK293, greater than 100 µM. In the assay filed under Sus scrofa, the inhibition came out at 19%. Moreover, the “Ratio IC50” value in the assay on HCT-116 [14] was found to be 2.

As for `O=C(c1ccccc1)c1[nH]c2cc(Cl)ccc2c1Nc1nc(N2CCOCC2)ncc1[N+](=O)[O-]`, the IC50 with HCT-116 [1], with MDA-MB-231, in the assay with MCF7 and with HeLa [2] was greater than 100 µM in each case. Moreover, the inhibition in the assay listed under Sus scrofa stood at 9%.

With `Cc1ccc2c(Nc3nc(N4CCOCC4)ncc3[N+](=O)[O-])c(C(=O)c3ccc(-c4ccccc4)cc3)[nH]c2c1`, the IC50 with HCT-116 [1] was greater than 100 µM; in the assay on MDA-MB-231, greater than 100 µM; in the assay with MCF7, 60.4 µM; with HeLa [2], 7.46 µM.

Regarding `O=C(c1ccc(Br)cc1)c1[nH]c2ccccc2c1Nc1nc(N2CCOCC2)ncc1[N+](=O)[O-]`, the IC50 with HCT-116 [1] was determined as 33.3 µM; in the assay with MDA-MB-231, 34.1 µM; with MCF7, 85.4 µM; in the assay with HeLa [2], 54.3 µM.

For the compound `COc1ccc(C(=O)c2[nH]c3cc(Cl)ccc3c2Nc2nc(N3CCOCC3)ncc2[N+](=O)[O-])cc1`, the IC50 with HCT-116 [1] was 24.4 µM; in the assay on MDA-MB-231, greater than 100 µM; in the assay with MCF7, 35 µM; in the assay on HeLa [2], 47.1 µM. Besides, the inhibition in the assay listed under Sus scrofa turned out to be 14%.

On to `COc1ccc(C(=O)c2[nH]c3ccccc3c2Nc2nc(N3CCSCC3)ncc2[N+](=O)[O-])cc1`, for which the IC50 in the assay with HCT-116 [1], with MDA-MB-231, in the assay with MCF7 and in the assay on HeLa [2] was greater than 100 µM throughout.

In the case of `COc1ccc(C(=O)c2[nH]c3cc(C)ccc3c2Nc2nc(N3CCOCC3)ncc2[N+](=O)[O-])cc1`, the IC50 was 44 µM in the assay on HCT-116 [1], 89.4 µM in the assay on MDA-MB-231, greater than 100 µM in the assay with MCF7 and 90.5 µM in the assay with HeLa [2].

As to `Cc1ccc2c(Nc3nc(N4CCOCC4)ncc3[N+](=O)[O-])c(C(=O)c3ccccc3)[nH]c2c1`, the IC50 in the assay with HCT-116 [1] was 80.6 µM; in the assay on MDA-MB-231, 76.3 µM; with MCF7, 56.8 µM; in the assay with HeLa [2] it was 47.1 µM.
